Test results as given in patent publication US20120035161A1, “Novel Compositions and Methods of Treating Diseases Using the Same” (CORRIDOR PHARMACEUTICALS, INC., priority 2006, published 2012).

Assays:
[1] = system: Serotonin (5-Hydroxytryptamine) 5-HT1, Non-Selective; experiment: Assay 271000 radioligand binding, 5-HT1 non-selective; set-up: species or system Wistar Rat
Experimental: (§1) The methods employed in this study have been adapted from the scientific literature to maximize reliability and reproducibility. Reference standards were run as an integral part of each assay to ensure the validity of the results obtained. Assays were performed under conditions as described below. Where presented, IC50 values were determined by a non-linear, least squares regression analysis using the Data Analysis Toolbox (MDL Information Systems, San Leandro, Calif., USA). Where inhibition constants (Ki) are presented, the Ki values were calculated using the equation of Cheng and Prusoff (Cheng, Y., Prusoff, W. H., Biochem. Pharmacol. 22:3099-3108, 1973) using the observed IC50 of the tested compound, the concentration of radioligand employed in the assay, and historical values for the KD of the ligand. Where presented, the Hill coefficient (nu), defining the slope of the competitive binding curve, was calculated using the Data Analysis Toolbox.

[2] = molecular target: T1, Serotonin (5-Hydroxytryptamine) 5-HT1B (Rattus norvegicus, UniProt P28564); experiment: Assay 271200 radioligand binding, 5-HT1B; set-up: species or system Wistar Rat
T1 construct: from tissue
Experimental: as §1

[3] = system: Serotonin (5-Hydroxytryptamine) 5-HT2, Non-Selective; experiment: Assay 271600 radioligand binding, 5-HT2 non-selective; set-up: species or system Wistar Rat
Experimental: as §1

[4] = system: Monocrotaline model of pulmonary arterial hypertension; experiment: Monocrotaline model of pulmonary arterial hypertension (PAH); format: in vivo, Sprague-Dawley rats
Experimental: Adult male Sprague-Dawley rats (287±4 g) were obtained from Charles River Laboratories (Raleigh, N.C.). Animals housed individually in a temperature/humidity controlled room with 12-hour light/dark cycles had free access to water and food and were acclimated for one week prior to the study. All experimental protocols were approved by the University of Illinois at Chicago Care and Use Committee, and all experiments were conducted in accordance with the NIH guidelines for animal welfare.
Rats were randomly assigned to one of five experimental groups (n=10 per group). Rats in groups 1 and 2 served as healthy controls; the remaining rats were injected subcutaneously on Day 0 with 60 mg/kg body weight monocrotaline, the toxic alkaloid of C. spectabilis (dissolved in DMSO at a concentration of 60 mg/mL, Sigma Aldrich, St. Louis, Mo.). On days 1-21, rats were dosed via oral gavage (2 mL/kg) with vehicle (PBS), or ICI-735 at 1 mg/kg or 10 mg/kg. Rats were weighed daily, and the dosages were adjusted appropriately. […]
After the lungs were harvested, they were instilled with 10% neutral buffered formalin and immersed in the same fixative. The left and right caudal lung lobes were trimmed to produce six transverse samples per rat and these samples were routinely processed and embedded in paraffin blocks. Sections (approximately 5 μm thick) were stained with Verhoeff's elastin/eosin stain and examined by light microscopy, Histopathological findings were classified as: 1-alveolar inflammation and septal remodeling, 2-perivascular inflammation and edema, 3-perivascular fibrosis, and 4-arteriolar medial hypertrophy. The findings were graded by a pathologist without knowledge of treatment group assignment as 0 (not present), 1 (minimal), 2 (mild), 3 (moderate), or 4 (marked).
The distribution of each finding, if present was classified as multifocal or diffuse. The degree of muscularization of small peripheral pulmonary arteries was assessed by examination of sections immunohistochemically reacted with an anti-alpha-smooth muscle actin antibody (rabbit polyclonal ab5694 diluted 1:100, Abeam, Cambridge, Mass.). […]

[5] = MCT + 1 mg/kg ICI-735, 21 days, n = 10
[6] = MCT + 10 mg/kg ICI-735, 21 days, n = 10
[7] = MCT rats, daily oral 10 mg/kg for 21 days, p<0.05
[8] = SI + 10 mg/kg ICI-735, 21 days, n = 10

T1 sequence (P28564 whole entry): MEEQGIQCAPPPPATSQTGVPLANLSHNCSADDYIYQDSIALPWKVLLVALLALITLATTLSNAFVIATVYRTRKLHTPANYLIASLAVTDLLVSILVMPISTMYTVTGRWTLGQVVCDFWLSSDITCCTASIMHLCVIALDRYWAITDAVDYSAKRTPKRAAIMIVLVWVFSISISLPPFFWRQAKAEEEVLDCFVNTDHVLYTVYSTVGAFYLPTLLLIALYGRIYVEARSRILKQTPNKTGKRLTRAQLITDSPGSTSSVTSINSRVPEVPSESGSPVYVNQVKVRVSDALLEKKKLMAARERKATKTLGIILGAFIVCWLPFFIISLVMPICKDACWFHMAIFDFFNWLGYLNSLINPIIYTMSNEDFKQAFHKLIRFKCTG

SMILES: NCC(=O)NCCN1CCN(CCCN2c3ccccc3Sc3ccc(C(F)(F)F)cc32)CC1 [ICI-735]
- % INHIBITION ([1]; 0.1 μM): 16%
- % INHIBITION ([1]; 10 μM): 63%
- inhibition at 0.1 µM ([2]; 0.1 μM): 13%
- inhibition at 10 µM ([2]; 10 μM): 86%
- % INHIBITION ([3]; 0.1 μM): 62%
- % INHIBITION ([3]; 10 μM): 91%
- physical or behavioral drug-related toxicity, daily clinical evaluation ([4]; 1 or 10 mg/kg oral, 21 days): no evidence
- Incidence: Alveolar inflammation/septal remodeling, severity score 1 [4, 5]: 3
- Incidence: Alveolar inflammation/septal remodeling, severity score 2 [4, 5]: 4
- Incidence: Alveolar inflammation/septal remodeling, severity score 3 [4, 5]: 1
- Incidence: Alveolar inflammation/septal remodeling, severity score 4 [4, 5]: 2
- Incidence: Arteriolar medial hypertrophy, severity score 1 [4, 5]: 1
- Incidence: Arteriolar medial hypertrophy, severity score 2 [4, 5]: 6
- Incidence: Arteriolar medial hypertrophy, severity score 3 [4, 5]: 3
- Incidence: Perivascular flbrosis, severity score 0 [4, 5]: 2
- Incidence: Perivascular flbrosis, severity score 1 [4, 5]: 5
- Incidence: Perivascular flbrosis, severity score 2 [4, 5]: 3
- Incidence: Perivascular inflammation/edema, severity score 1 [4, 5]: 4
- Incidence: Perivascular inflammation/edema, severity score 2 [4, 5]: 5
- Incidence: Perivascular inflammation/edema, severity score 3 [4, 5]: 1
- Incidence: Alveolar inflammation/septal remodeling, severity score 1 [4, 6]: 6
- Incidence: Alveolar inflammation/septal remodeling, severity score 2 [4, 6]: 3
- Incidence: Alveolar inflammation/septal remodeling, severity score 3 [4, 6]: 1
- Incidence: Arteriolar medial hypertrophy, severity score 0 [4, 6]: 3
- Incidence: Arteriolar medial hypertrophy, severity score 1 [4, 6]: 5
- Incidence: Arteriolar medial hypertrophy, severity score 2 [4, 6]: 2
- Incidence: Perivascular flbrosis, severity score 0 [4, 6]: 7
- Incidence: Perivascular flbrosis, severity score 1 [4, 6]: 3
- Incidence: Perivascular inflammation/edema, severity score 1 [4, 6]: 8
- Incidence: Perivascular inflammation/edema, severity score 2 [4, 6]: 2
- effects of MCT on PAP, RVSP and RV/BW ([4]; MCT rats, 1 mg/kg): did not attenuate
- incidences and severities of perivascular fibrosis and arteriolar medial hypertrophy ([4]; MCT rats, 10 mg/kg): marked decrease
- severities of alveolar inflammation and septal remodeling, and perivascular inflammation and edema ([4]; MCT rats, 10 mg/kg, compared to MCT/vehicle): clearly diminished
- reduction of MCT-induced elevation of PAP [4, 7]: 75%
- reduction of MCT-induced elevation of RV/BW [4, 7]: 81%
- reduction of MCT-induced elevation of RVSP [4, 7]: 78%
- degree of muscularization of pulmonary arterioles compared with SI/vehicle controls ([4]; MCT rats, high-dose): no significant differences
- Incidence: Alveolar inflammation/septal remodeling, severity score 0 [4, 8]: 1
- Incidence: Alveolar inflammation/septal remodeling, severity score 1 [4, 8]: 9
- Incidence: Arteriolar medial hypertrophy, severity score 0 [4, 8]: 10
- Incidence: Perivascular flbrosis, severity score 0 [4, 8]: 10
- Incidence: Perivascular inflammation/edema, severity score 0 [4, 8]: 4
- Incidence: Perivascular inflammation/edema, severity score 1 [4, 8]: 5
- Incidence: Perivascular inflammation/edema, severity score 2 [4, 8]: 1
- changes in PAP, RVSP or RV/BW compared with vehicle controls ([4]; SI rats, 10 mg/kg): no changes
- Mean arterial pressure (MAP) compared with controls ([4]; all ICI-735-treated groups): unmodified
- heart rate (HR) compared with controls ([4]; all ICI-735-treated groups): unmodified
